Values joined by “and” are separate entries in the source; they are usually repeats but may differ in a detail not shown here. Equal values may be shown once. “Also recorded” adds a separate entry of the source. Read-outs that look alike come from different tables or passages of the source.
Key:
Rat Ulcerogenicity Test = type: in vivo, rat (Charles River CD); conditions: for Incidence (number of rats with lesions/total tested) / Mean Score of gastric mucosal lesions: stomach tube, 1 h; for Mean Score of gastric mucosal lesions: scale 0 (normal mucosa) to 3 (erosions longer than 5 mm or confluent hemorrhages)
Protocol: Experimental groups of 5-11 rats (Charles River CD) were fasted for 24 hours before the administration of either aspirin, Δ^1 -THC-7-oic-acid or indomethacin by a rubber stomach tube (Rusch No. 8). The animals were killed 1 hour later by carbon dioxide asphyxiation. At that time, 4 ml of 10% aqueous buffered formaldehyde (formalin) was injected directly into the stomach of each animal. This in situ intraluminal fixation with formalin was especially critical for the assessment of small gastric erosions induced by aspirin since the overlying hemorrhage could easily be removed by rinsing the unfixed stomach. After 5 minutes of in situ fixation, the stomach and proximal duodenum were removed, opened along the greater curvature, pinned on a cork with mucosa upward, and immersed in 10% formaldehyde until further processing (Szabo, S. et al, J. Pharmacol. Meth. 13:59-66, 1985). The gastric lesions were then evaluated by direct visual inspection.
For comparative purposes, a semiquantitative scale of 0-3 was used to assess the extent of gastric mucosal lesions (Scabo et al., 1981, 1983). According to this scale, a score of 0 indicates a normal mucosa; 1 represents the appearance of between 1 and 4 small petechiae; 2 indicates the presence of 5 or more petechiae or hemmorhagic streaks up to 4 mm in length; 3 represents the appearance of erosions longer than 5 mm or confluent hemorrhages.

[1] = test system: prostaglandin synthetase system; conditions: variety of models; cited from earlier work
[2] = humans; cited from earlier work
[3] = set-up: species or system mouse (Charles River CD-1); conditions: mouse, in vivo
[4] = rhesus monkey; cited from earlier work
prostaglandin synthesis = conditions: metabolite added to culture medium prior to THC exposure; cited from earlier work
[5] = Mouse Carrageenan Edema Test; type: in vivo, mouse (Charles River CD-1, female); conditions: 3 h after carrageenan; for Paw Volume (edema volume): ± S.D.
Protocol: The basic experimental procedure was adapted from Sophia et al., J. Pharma. Exper. Ther. 186:646, 1973. Charles Rivier CD-1 female mice (20-25 g) were given a dose of either Δ^1 -THC-7-oic-acid, indomethacin or vehicle (control). All compounds were administered orally in a 20 ul volume of peanut oil. One hour later, 0.05 ml of a 1% solution of calcium carrageenan in saline was injected subcutaneously into the plantar surface of the right hind paw. The volume of the injected foot to the level of the lateral malleolus was measured by water displacement immediately before oral drug administration and again three hours after carrageenan injection. The difference between the two measurements was called edema volume. The effectiveness of each compound was analyzed in the following manner. For Δ^1 -THC-7-oic-acid, the mean paw volumes, before and after the metabolite was administered, were statistically compared by one-way ANOVA (analysis of variance) and Fisher PLSD Scheffe t-tests. For indomethacin, the mean paw volumes, pre- and postdrug, were statistically compared using the student's t-test. The percent inhibition of edema volume was obtained from the ratio of the predrug volume to the postdrug volume (Table II).

CCCCCc1cc(O)c2c(c1)OC(C)(C)[C@@H]1CCC(C(=O)O)=CC21 (single isomer, unassigned) [Δ^1 -THC-7-oic-acid]
ulcer / gastric lesion formation (in words) (Rat Ulcerogenicity Test; 50 mg/kg, directly into the stomach): did not induce ulcer formation; also recorded: does not induce the formation of gastric lesions | Incidence (number of rats with lesions/total tested) (Rat Ulcerogenicity Test; 50 mg/kg): 0/10 | Mean Score of gastric mucosal lesions (Rat Ulcerogenicity Test; 50 mg/kg): 0.0 | inhibition of the prostaglandin synthetase system [1]: potent inhibitor of the prostaglandin synthetase system | behavioral activity and cardiovascular effects [2]: did not show the behavioral activity or the cardiovascular effects characteristic of the parent substance, THC | analgesic (pain-relieving) effect / potency relative to naproxen ([3]; po): merely equivalent to that of naproxen; also recorded: exhibits analgesic activity with a potency similar to that of naproxen | behavioral activity and cardiovascular effects [4]: did not show the behavioral activity or the cardiovascular effects characteristic of the parent substance, THC | antagonism of the stimulatory effect of THC on prostaglandin synthesis (prostaglandin synthesis): dramatic lowering of the stimulatory effect of THC on prostaglandin synthesis | % Inhibition of Edema Volume ([5]; 20 mg/kg oral): 53% | Paw Volume (edema volume) ([5]; 20 mg/kg oral): 9 ± 12 µL | % Inhibition of Edema Volume ([5]; 40 mg/kg oral): 79% | Paw Volume (edema volume) ([5]; 40 mg/kg oral): 4 ± 13 µL

CC(=O)Oc1ccccc1C(=O)O [Aspirin]
gastric lesions / gastrointestinal damage (in words) (Rat Ulcerogenicity Test; 100 mg/kg, half the therapeutic dose, into the stomach): induced the formation of gastric lesions in each test animal; also recorded: each of the experimental animals experiences gastrointestinal damage | Incidence (number of rats with lesions/total tested) (Rat Ulcerogenicity Test; 100 mg/kg): 10/10 | Mean Score of gastric mucosal lesions (Rat Ulcerogenicity Test; 100 mg/kg): 1.9

COc1ccc2c(c1)c(CC(=O)O)c(C)n2C(=O)c1ccc(Cl)cc1 [Indomethacin, reference compound]
Incidence (number of rats with lesions/total tested) (Rat Ulcerogenicity Test; 10 mg/kg): 2/5 | Mean Score of gastric mucosal lesions (Rat Ulcerogenicity Test; 10 mg/kg): 0.6 | Incidence (number of rats with lesions/total tested) (Rat Ulcerogenicity Test; 20 mg/kg): 6/11 | Mean Score of gastric mucosal lesions (Rat Ulcerogenicity Test; 20 mg/kg): 0.77 | Latency (percent change of the mean reaction time compared to predrug values) [3]: 52.7 and 51.1 | % Inhibition of Edema Volume ([5]; 20 mg/kg oral): 100% | Paw Volume (edema volume) ([5]; 20 mg/kg oral): -13 ± 17 µL
